Laboratory results as given in article PMC7419507, “In vitro Cas9-assisted editing of modular polyketide synthase genes to produce desired natural product derivatives” (Nature Communications, 2020).
Several values for one entry are separate records, joined by “and”; a condition that tells them apart may be missing. Equal entries are not always repeated.

What was measured:
[1] = test system: human ovarian adenocarcinoma SKOV-3 cells; experiment: Cytotoxicity assay (CellTiter-Glo, 72 h), SKOV-3; assay type: cell-based; conditions: raw replicate data
Method in brief: (§1)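 Luminescent ATP read-out (CellTiter-Glo) quantified surviving cells after a 72 h incubation with 2-fold diluted compounds in 0.5% DMSO, added 4 h post-seeding at 1000 cells/well.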

[2] = Cytotoxicity assay (CellTiter-Glo, 72 h), SKOV-3; assay type: cell-based, human; conditions: human, raw replicate data, read-out: SKOV3 viability (%)
Method in brief: as §1

[3] = Cytotoxicity assay (CellTiter-Glo, 72 h), MESO-1; assay type: cell-based; conditions: human, MESO-1 malignant pleural mesothelioma cells, raw replicate data, read-out: MESO1 viability (%)
Method in brief: as §1

[4] = test system: malignant pleural mesothelioma MESO-1 cells; experiment: Cytotoxicity assay (CellTiter-Glo, 72 h), MESO-1; assay type: cell-based; conditions: raw replicate data
Method in brief: as §1

[5] = test system: Jurkat, SKOV-3 and MESO-1 cells; experiment: Cytotoxicity assay, statements for all tested cell lines together; assay type: cell-based; conditions: Jurkat, SKOV-3 and MESO-1 cells, 72 h
Method in brief: as §1

FKBP12 and mTOR = target: T1, FKBP12 and mTOR (Homo sapiens, UniProt P42345+P62942); experiment: Fluoppi analysis: induction of FKBP12-mTOR complex formation in transfected HeLa cells; assay type: cell-based; conditions: for Foci intensity: raw data, one replicate per line
T1 construct: host or cells: HeLa cells
T1 sequence (P42345 2025-2114 limits assumed): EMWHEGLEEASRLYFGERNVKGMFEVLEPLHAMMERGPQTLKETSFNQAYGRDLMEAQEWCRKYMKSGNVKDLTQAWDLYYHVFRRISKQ
T1 sequence (P62942 whole entry): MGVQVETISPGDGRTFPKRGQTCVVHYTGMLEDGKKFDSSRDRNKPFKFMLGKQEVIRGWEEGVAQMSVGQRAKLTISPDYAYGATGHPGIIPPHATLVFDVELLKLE
Method in brief: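 HeLa cells co-transfected with phAG-mTOR and pAsh-FKBP12, seeded 3000 cells/well, then compound-treated 1 h after 24 h at 37 °C. Fixed, Hoechst-stained, imaged by high-content microscopy; foci fluorescence normalized to total cell fluorescence, EC50 computed.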

- PPI-inducing (binding enhancing) activity between FKBP12 and mTOR compared with rapamycin (1), in words (FKBP12 and mTOR; Fluoppi): much less potent than 1
- EC50 (FKBP12 and mTOR; Fluoppi, HeLa cells, 1 h treatment, three independent biological replicates, read-out: EC50, induction of the formation of FKBP-mTOR complex): 0.32 µM
- Foci intensity (FKBP12 and mTOR; conc 9.53674e-5 uM): 0.01546 and 0.009859 and 0.01479
- Foci intensity (FKBP12 and mTOR; conc 0.000190735 uM): 0.02291 and 0.01436 and 0.01269
- Foci intensity (FKBP12 and mTOR; conc 0.00038147 uM): 0.01763 and 0.009567 and 0.009808
- Foci intensity (FKBP12 and mTOR; conc 0.000762939 uM): 0.02965 and 0.01327 and 0.0132
- Foci intensity (FKBP12 and mTOR; conc 0.00152588 uM): 0.01988 and 0.005935 and 0.01208
- Foci intensity (FKBP12 and mTOR; conc 0.00305176 uM): 0.01996 and 0.02873 and 0.02267
- Foci intensity (FKBP12 and mTOR; conc 0.00610352 uM): 0.009728 and 0.0229 and 0.03931
- Foci intensity (FKBP12 and mTOR; conc 0.012207 uM): 0.02585 and 0.06278 and 0.01094
- Foci intensity (FKBP12 and mTOR; conc 0.0244141 uM): 0.02982 and 0.02323 and 0.02961
- Foci intensity (FKBP12 and mTOR; conc 0.0488281 uM): 0.03327 and 0.007263 and 0.02034
- Foci intensity (FKBP12 and mTOR; conc 0.0976562 uM): 0.0343 and 0.0166 and 0.04409
- Foci intensity (FKBP12 and mTOR; conc 0.195312 uM): 0.1225 and 0.05897 and 0.08613
- Foci intensity (FKBP12 and mTOR; conc 0.390625 uM): 0.2002 and 0.2003 and 0.254
- Foci intensity (FKBP12 and mTOR; conc 0.78125 uM): 0.2477 and 0.2297 and 0.3237
- Foci intensity (FKBP12 and mTOR; conc 1.5625 uM): 0.2891 and 0.3472 and 0.3016
- Foci intensity (FKBP12 and mTOR; conc 3.125 uM): 0.3418 and 0.3544 and 0.3825
- Foci intensity (FKBP12 and mTOR; conc 6.25 uM): 0.285 and 0.273 and 0.328
- Foci intensity (FKBP12 and mTOR; conc 12.5 uM): 0.2778 and 0.3903 and 0.3448
- Foci intensity (FKBP12 and mTOR; conc 25 uM): 0.3624 and 0.278 and 0.3289
- Foci intensity (FKBP12 and mTOR; conc 50 uM): 0.2714 and 0.2974 and 0.3445
Structure (SMILES): CO[C@H]1C[C@@H]2CC[C@@H](C)[C@@](O)(O2)C(=O)C(=O)N2CCCC[C@H]2C(=O)O[C@H]([C@H](C)C[C@@H]2CC[C@@H](O)[C@H](OC)C2)CC(=O)[C@H](C)/C=C(\C)[C@@H](O)CC[C@H](C)/C=C/C=C/C=C/1C [Compound 7]
- SKOV3 viability (%) ([1]; conc 9.53674e-5 uM): 108.9% and 101.6%
- SKOV3 viability (%) ([1]; conc 0.000190735 uM): 101.5% and 97.4%
- SKOV3 viability (%) ([1]; conc 0.00038147 uM): 103.2% and 103.5%
- SKOV3 viability (%) ([1]; conc 0.000762939 uM): 102.5%
- SKOV3 viability (%) ([1]; conc 0.00152588 uM): 105.1% and 100.3%
- SKOV3 viability (%) ([1]; conc 0.00305176 uM): 94.9% and 97.9%
- SKOV3 viability (%) ([1]; conc 0.00610352 uM): 104.9% and 101.4%
- SKOV3 viability (%) ([1]; conc 0.012207 uM): 92.0% and 94.0%
- SKOV3 viability (%) ([1]; conc 0.0244141 uM): 99.4% and 102.3%
- SKOV3 viability (%) ([1]; conc 0.0488281 uM): 100.8% and 88.2%
- SKOV3 viability (%) ([1]; conc 0.0976562 uM): 88.7% and 90.6%
- SKOV3 viability (%) ([1]; conc 0.195312 uM): 66.8% and 68.9%
- SKOV3 viability (%) ([1]; conc 0.390625 uM): 68.2% and 69.5%
- SKOV3 viability (%) ([1]; conc 0.78125 uM): 60.2% and 57.4%
- SKOV3 viability (%) ([1]; conc 1.5625 uM): 64.2% and 69.2%
- SKOV3 viability (%) ([1]; conc 3.125 uM): 60.4% and 56.6%
- SKOV3 viability (%) ([1]; conc 6.25 uM): 60.8% and 65.6%
- SKOV3 viability (%) ([1]; conc 12.5 uM): 53.3% and 53.4%
- SKOV3 viability (%) ([1]; conc 25 uM): 31.4% and 36.3%
- SKOV3 viability (%) ([1]; conc 50 uM): 5.9% and 7.4%
- viability at 72 h, 9.53674e-05 uM ([2]; SKOV-3 cells (ovarian adenocarcinoma), conc 9.53674e-5 uM): 101%
- viability at 72 h, 0.000190735 uM ([2]; SKOV-3 cells (ovarian adenocarcinoma), conc 0.000190735 uM): 101%
- viability at 72 h, 0.00038147 uM ([2]; SKOV-3 cells (ovarian adenocarcinoma), conc 0.00038147 uM): 98.2%
- viability at 72 h, 0.000762939 uM ([2]; SKOV-3 cells (ovarian adenocarcinoma), conc 0.000762939 uM): 98.7%
- viability at 72 h, 0.00152588 uM ([2]; SKOV-3 cells (ovarian adenocarcinoma), conc 0.00152588 uM): 101%
- viability at 72 h, 0.00305176 uM ([2]; SKOV-3 cells (ovarian adenocarcinoma), conc 0.00305176 uM): 94.8%
- viability at 72 h, 0.00610352 uM ([2]; SKOV-3 cells (ovarian adenocarcinoma), conc 0.00610352 uM): 98.4%
- viability at 72 h, 0.012207 uM ([2]; SKOV-3 cells (ovarian adenocarcinoma), conc 0.012207 uM): 96.9%
- viability at 72 h, 0.0244141 uM ([2]; SKOV-3 cells (ovarian adenocarcinoma), conc 0.0244141 uM): 94.4%
- viability at 72 h, 0.0488281 uM ([2]; SKOV-3 cells (ovarian adenocarcinoma), conc 0.0488281 uM): 92.3%
- viability at 72 h, 0.0976562 uM ([2]; SKOV-3 cells (ovarian adenocarcinoma), conc 0.0976562 uM): 88.5%
- viability at 72 h, 0.195312 uM ([2]; SKOV-3 cells (ovarian adenocarcinoma), conc 0.195312 uM): 64.9%
- viability at 72 h, 0.390625 uM ([2]; SKOV-3 cells (ovarian adenocarcinoma), conc 0.390625 uM): 75%
- viability at 72 h, 12.5 uM ([2]; SKOV-3 cells (ovarian adenocarcinoma), conc 12.5 uM): 56.1%
- viability at 72 h, 25 uM ([2]; SKOV-3 cells (ovarian adenocarcinoma), conc 25 uM): 30.8%
- viability at 72 h, 50 uM ([2]; SKOV-3 cells (ovarian adenocarcinoma), conc 50 uM): 6.6%
- viability at 72 h, 0.78125 uM ([2]; SKOV-3 ovarian adenocarcinoma cells, conc 0.78125 uM): 59.1%
- viability at 72 h, 1.5625 uM ([2]; SKOV-3 ovarian adenocarcinoma cells, conc 1.5625 uM): 62%
- viability at 72 h, 3.125 uM ([2]; SKOV-3 ovarian adenocarcinoma cells, conc 3.125 uM): 59.9%
- viability at 72 h, 6.25 uM ([2]; SKOV-3 ovarian adenocarcinoma cells, conc 6.25 uM): 61.9%
- viability at 72 h, 9.53674e-05 uM ([3]; conc 9.53674e-5 uM): 96.8%
- viability at 72 h, 0.000190735 uM ([3]; conc 0.000190735 uM): 92.7%
- viability at 72 h, 0.00038147 uM ([3]; conc 0.00038147 uM): 98.8%
- viability at 72 h, 0.000762939 uM ([3]; conc 0.000762939 uM): 94.4%
- viability at 72 h, 0.00152588 uM ([3]; conc 0.00152588 uM): 97.9%
- viability at 72 h, 0.00305176 uM ([3]; conc 0.00305176 uM): 90.7%
- viability at 72 h, 0.00610352 uM ([3]; conc 0.00610352 uM): 100%
- viability at 72 h, 0.012207 uM ([3]; conc 0.012207 uM): 86%
- viability at 72 h, 0.0244141 uM ([3]; conc 0.0244141 uM): 90.4%
- viability at 72 h, 0.0488281 uM ([3]; conc 0.0488281 uM): 80.8%
- viability at 72 h, 0.0976562 uM ([3]; conc 0.0976562 uM): 78.6%
- viability at 72 h, 0.195312 uM ([3]; conc 0.195312 uM): 68.6%
- viability at 72 h, 0.390625 uM ([3]; conc 0.390625 uM): 71.6%
- viability at 72 h, 0.78125 uM ([3]; conc 0.78125 uM): 67.7%
- viability at 72 h, 1.5625 uM ([3]; conc 1.5625 uM): 70.1%
- viability at 72 h, 3.125 uM ([3]; conc 3.125 uM): 60.8%
- viability at 72 h, 6.25 uM ([3]; conc 6.25 uM): 67.3%
- viability at 72 h, 12.5 uM ([3]; conc 12.5 uM): 66.3%
- viability at 72 h, 25 uM ([3]; conc 25 uM): 64.4%
- viability at 72 h, 50 uM ([3]; conc 50 uM): 23.2%
- MESO1 viability (%) ([4]; conc 9.53674e-5 uM): 102.2% and 99.0%
- MESO1 viability (%) ([4]; conc 0.000190735 uM): 96.1%
- MESO1 viability (%) ([4]; conc 0.00038147 uM): 98.4% and 104.2%
- MESO1 viability (%) ([4]; conc 0.000762939 uM): 97.5%
- MESO1 viability (%) ([4]; conc 0.00152588 uM): 94.3% and 98.4%
- MESO1 viability (%) ([4]; conc 0.00305176 uM): 93.1% and 92.8%
- MESO1 viability (%) ([4]; conc 0.00610352 uM): 98.2%
- MESO1 viability (%) ([4]; conc 0.012207 uM): 92.2% and 89.5%
- MESO1 viability (%) ([4]; conc 0.0244141 uM): 87.8%
- MESO1 viability (%) ([4]; conc 0.0488281 uM): 86.4% and 84.2%
- MESO1 viability (%) ([4]; conc 0.0976562 uM): 76.6% and 76.8%
- MESO1 viability (%) ([4]; conc 0.195312 uM): 70.4% and 63.5%
- MESO1 viability (%) ([4]; conc 0.390625 uM): 69.2% and 71.3%
- MESO1 viability (%) ([4]; conc 0.78125 uM): 64.7% and 62.9%
- MESO1 viability (%) ([4]; conc 1.5625 uM): 70.0% and 72.7%
- MESO1 viability (%) ([4]; conc 3.125 uM): 62.1% and 64.7%
- MESO1 viability (%) ([4]; conc 6.25 uM): 67.5% and 72.2%
- MESO1 viability (%) ([4]; conc 12.5 uM): 60.9% and 63.2%
- MESO1 viability (%) ([4]; conc 25 uM): 63.3% and 65.2%
- MESO1 viability (%) ([4]; conc 50 uM): 30.2% and 20.1%
- Effect on cell viability, in words [5]: slightly suppressed the cell viabilities
